In ChEMBL document CHEMBL3045802, “Synthesis and in vitro antitumor activity of new quinoline, pyrimido[4,5-b]quinoline, [1,2,3]triazino[4,5-b]quinoline, and [1,2,4]triazolo[2,3:3,4]pyrimido[6,5-b]quinoline analogs” (2013):

Key:
Format in all cases: functional
Malme-3M = assay: Cytotoxicity against Homo sapiens (human) MALME-3M cells assessed as growth inhibition at 10 uM after 48 hr by coulter counter analysis; conditions: read-out: GI
A498 = assay: Cytotoxicity against Homo sapiens (human) A498 cells assessed as growth inhibition at 10 uM after 48 hr by coulter counter analysis; conditions: A498, 48 h, read-out: GI
[1] = Cytotoxicity against Homo sapiens (human) NCI-ADR-RES cells assessed as growth inhibition at 10 uM after 48 hr by coulter counter analysis; conditions: read-out: GI
SK-MEL-28 = assay: Cytotoxicity against Homo sapiens (human) SK-MEL-28 cells assessed as growth inhibition at 10 uM after 48 hr by coulter counter analysis; conditions: SK-MEL-28, 48 h, read-out: GI
SW-620 = assay: Cytotoxicity against Homo sapiens (human) SW620 cells assessed as growth inhibition at 10 uM after 48 hr by coulter counter analysis; conditions: SW-620, 48 h, read-out: GI
NCI-H226 = assay: Cytotoxicity against Homo sapiens (human) NCI-H226 cells assessed as growth inhibition at 10 uM after 48 hr by coulter counter analysis; conditions: NCI-H226, 48 h, read-out: GI
SF-539 = assay: Cytotoxicity against Homo sapiens (human) SF539 cells assessed as growth inhibition at 10 uM after 48 hr by coulter counter analysis; conditions: SF-539, 48 h, read-out: GI
NCI-H460 = assay: Cytotoxicity against Homo sapiens (human) NCI-H460 cells assessed as growth inhibition at 10 uM after 48 hr by coulter counter analysis; conditions: NCI-H460, 48 h, read-out: GI
T47D = assay: Cytotoxicity against Homo sapiens (human) T47D cells assessed as growth inhibition at 10 uM after 48 hr by coulter counter analysis; conditions: read-out: GI
NCI-H23 = assay: Cytotoxicity against Homo sapiens (human) NCI-H23 cells assessed as growth inhibition at 10 uM after 48 hr by coulter counter analysis; conditions: NCI-H23, 48 h, read-out: GI
SK-MEL-5 = assay: Cytotoxicity against Homo sapiens (human) SK-MEL-5 cells assessed as growth inhibition at 10 uM after 48 hr by coulter counter analysis; conditions: SK-MEL-5, 48 h, read-out: GI
OVCAR-5 = assay: Cytotoxicity against Homo sapiens (human) OVCAR5 cells assessed as growth inhibition at 10 uM after 48 hr by coulter counter analysis; conditions: OVCAR-5, 48 h, read-out: GI
RPMI-8226 = assay: Cytotoxicity against Homo sapiens (human) RPMI8226 cells assessed as growth inhibition at 10 uM after 48 hr by coulter counter analysis; conditions: RPMI-8226, 48 h, read-out: GI
HCT-116 = assay: Cytotoxicity against Homo sapiens (human) HCT116 cells assessed as growth inhibition at 10 uM after 48 hr by coulter counter analysis; conditions: HCT-116, 48 h, read-out: GI
SNB-19 = assay: Cytotoxicity against Homo sapiens (human) SNB19 cells assessed as growth inhibition at 10 uM after 48 hr by coulter counter analysis; conditions: SNB-19, 48 h, read-out: GI
MDA-MB-435 = assay: Cytotoxicity against Homo sapiens (human) MDA-MB-435 cells assessed as growth inhibition at 10 uM after 48 hr by coulter counter analysis; conditions: MDA-MB-435, 48 h, read-out: GI
HCC 2998 = assay: Cytotoxicity against Homo sapiens (human) HCC2998 cells assessed as growth inhibition at 10 uM after 48 hr by coulter counter analysis; conditions: HCC 2998, 48 h, read-out: GI
HT-29 = assay: Cytotoxicity against Homo sapiens (human) HT-29 cells assessed as growth inhibition at 10 uM after 48 hr by coulter counter analysis; conditions: HT-29, 48 h, read-out: GI
SR = assay: Cytotoxicity against Homo sapiens (human) SR cells assessed as growth inhibition at 10 uM after 48 hr by coulter counter analysis; conditions: read-out: GI
HOP-62 = assay: Cytotoxicity against Homo sapiens (human) HOP62 cells assessed as growth inhibition at 10 uM after 48 hr by coulter counter analysis; conditions: HOP-62, 48 h, read-out: GI
A549 = assay: Cytotoxicity against Homo sapiens (human) A549 cells assessed as growth inhibition at 10 uM after 48 hr by coulter counter analysis; conditions: A549, 48 h, read-out: GI
DU-145 = assay: Cytotoxicity against Homo sapiens (human) DU145 cells assessed as growth inhibition at 10 uM after 48 hr by coulter counter analysis; conditions: DU-145, 48 h, read-out: GI
HOP-92 = assay: Cytotoxicity against Homo sapiens (human) HOP92 cells assessed as growth inhibition at 10 uM after 48 hr by coulter counter analysis; conditions: HOP-92, 48 h, read-out: GI
CCRF-CEM = assay: Cytotoxicity against Homo sapiens (human) CCRF-CEM cells assessed as growth inhibition at 10 uM after 48 hr by coulter counter analysis; conditions: read-out: GI
K562 = assay: Cytotoxicity against Homo sapiens (human) K562 cells assessed as growth inhibition at 10 uM after 48 hr by coulter counter analysis; conditions: K562, 48 h, read-out: GI
UACC-257 = assay: Cytotoxicity against Homo sapiens (human) UACC257 cells assessed as growth inhibition at 10 uM after 48 hr by coulter counter analysis; conditions: UACC-257, 48 h, read-out: GI
BT-549 = assay: Cytotoxicity against Homo sapiens (human) BT549 cells assessed as growth inhibition at 10 uM after 48 hr by coulter counter analysis; conditions: BT-549, 48 h, read-out: GI
COLO 205 = assay: Cytotoxicity against Homo sapiens (human) COLO205 cells assessed as growth inhibition at 10 uM after 48 hr by coulter counter analysis; conditions: COLO 205, 48 h, read-out: GI
SN12C = assay: Cytotoxicity against Homo sapiens (human) SN12C cells assessed as growth inhibition at 10 uM after 48 hr by coulter counter analysis; conditions: read-out: GI
EKVX = assay: Cytotoxicity against Homo sapiens (human) EKVX cells assessed as growth inhibition at 10 uM after 48 hr by coulter counter analysis; conditions: read-out: GI
NCI-H522 = assay: Cytotoxicity against Homo sapiens (human) NCI-H522 cells assessed as growth inhibition at 10 uM after 48 hr by coulter counter analysis; conditions: NCI-H522, 48 h, read-out: GI
SK-MEL-2 = assay: Cytotoxicity against Homo sapiens (human) SK-MEL-2 cells assessed as growth inhibition at 10 uM after 48 hr by coulter counter analysis; conditions: SK-MEL-2, 48 h, read-out: GI
OVCAR-3 = assay: Cytotoxicity against Homo sapiens (human) OVCAR3 cells assessed as growth inhibition at 10 uM after 48 hr by coulter counter analysis; conditions: OVCAR-3, 48 h, read-out: GI
HL-60(TB) = assay: Cytotoxicity against Homo sapiens (human) HL-60(TB) cells assessed as growth inhibition at 10 uM after 48 hr by coulter counter analysis; conditions: HL-60, 48 h, read-out: GI

## COc1ccc(C2C3=C(CCCC3)Nc3nn[nH]c(=O)c32)cc1OC (configuration not stated)
Malme-3M
  inhibition of growth at 10 µM: < 10%
A498
  inhibition of growth at 10 µM: 13.2%
[1]
  inhibition of growth at 10 µM: < 10%
SK-MEL-28
  inhibition of growth at 10 µM: < 10%
SW-620
  inhibition of growth at 10 µM: < 10%
NCI-H226
  inhibition of growth at 10 µM: 15.9%
SF-539
  inhibition of growth at 10 µM: < 10%
NCI-H460
  inhibition of growth at 10 µM: < 10%
T47D
  inhibition of growth at 10 µM: 21.1%
NCI-H23
  inhibition of growth at 10 µM: < 10%
SK-MEL-5
  inhibition of growth at 10 µM: 10.9%
OVCAR-5
  inhibition of growth at 10 µM: 12.6%
RPMI-8226
  inhibition of growth at 10 µM: < 10%
HCT-116
  inhibition of growth at 10 µM: < 10%
SNB-19
  inhibition of growth at 10 µM: 10.7%
MDA-MB-435
  inhibition of growth at 10 µM: < 10%
HCC 2998
  inhibition of growth at 10 µM: < 10%
HT-29
  inhibition of growth at 10 µM: < 10%
SR
  inhibition of growth at 10 µM: < 10%
HOP-62
  inhibition of growth at 10 µM: 15.7%
A549
  inhibition of growth at 10 µM: < 10%
DU-145
  inhibition of growth at 10 µM: < 10%
HOP-92
  inhibition of growth at 10 µM: 13.3%
CCRF-CEM
  inhibition of growth at 10 µM: < 10%
K562
  inhibition of growth at 10 µM: < 10%
UACC-257
  inhibition of growth at 10 µM: < 10%
BT-549
  inhibition of growth at 10 µM: < 10%
COLO 205
  inhibition of growth at 10 µM: 15.9%
SN12C
  inhibition of growth at 10 µM: 10.8%
EKVX
  inhibition of growth at 10 µM: < 10%
NCI-H522
  inhibition of growth at 10 µM: < 10%
SK-MEL-2
  inhibition of growth at 10 µM: < 10%
OVCAR-3
  inhibition of growth at 10 µM: < 10%
HL-60(TB)
  inhibition of growth at 10 µM: < 10%

## COc1ccc(C2C3=C(CCCC3)Nc3[nH]c(=S)nc(NC(N)=S)c32)cc1OC (configuration not stated)
Malme-3M
  inhibition of growth at 10 µM: 10.9%
A498
  inhibition of growth at 10 µM: < 10%
[1]
  inhibition of growth at 10 µM: 11.7%
SK-MEL-28
  inhibition of growth at 10 µM: < 10%
SW-620
  inhibition of growth at 10 µM: < 10%
NCI-H226
  inhibition of growth at 10 µM: 18.6%
SF-539
  inhibition of growth at 10 µM: 21.1%
NCI-H460
  inhibition of growth at 10 µM: < 10%
T47D
  inhibition of growth at 10 µM: 27.5%
NCI-H23
  inhibition of growth at 10 µM: 15.3%
SK-MEL-5
  inhibition of growth at 10 µM: 25.5%
OVCAR-5
  inhibition of growth at 10 µM: < 10%
RPMI-8226
  inhibition of growth at 10 µM: < 10%
HCT-116
  inhibition of growth at 10 µM: < 10%
SNB-19
  inhibition of growth at 10 µM: 10.4%
MDA-MB-435
  inhibition of growth at 10 µM: 70.7%
HCC 2998
  inhibition of growth at 10 µM: < 10%
HT-29
  inhibition of growth at 10 µM: < 10%
SR
  inhibition of growth at 10 µM: 40.6%
HOP-62
  inhibition of growth at 10 µM: 25.4%
A549
  inhibition of growth at 10 µM: < 10%
DU-145
  inhibition of growth at 10 µM: < 10%
HOP-92
  inhibition of growth at 10 µM: 25.8%
CCRF-CEM
  inhibition of growth at 10 µM: < 10%
K562
  inhibition of growth at 10 µM: 17.6%
UACC-257
  inhibition of growth at 10 µM: < 10%
BT-549
  inhibition of growth at 10 µM: < 10%
COLO 205
  inhibition of growth at 10 µM: 12.8%
SN12C
  inhibition of growth at 10 µM: < 10%
EKVX
  inhibition of growth at 10 µM: < 10%
NCI-H522
  inhibition of growth at 10 µM: 43.4%
SK-MEL-2
  inhibition of growth at 10 µM: 12.6%
OVCAR-3
  inhibition of growth at 10 µM: < 10%
HL-60(TB)
  inhibition of growth at 10 µM: < 10%

## N#CCc1nc2c(c(=O)[nH]1)C(c1ccc(Cl)cc1)C1=C(CCCC1)N2 (configuration not stated)
Malme-3M
  inhibition of growth at 10 µM: < 10%
A498
  inhibition of growth at 10 µM: 13%
[1]
  inhibition of growth at 10 µM: < 10%
SK-MEL-28
  inhibition of growth at 10 µM: < 10%
SW-620
  inhibition of growth at 10 µM: < 10%
NCI-H226
  inhibition of growth at 10 µM: < 10%
SF-539
  inhibition of growth at 10 µM: < 10%
NCI-H460
  inhibition of growth at 10 µM: < 10%
T47D
  inhibition of growth at 10 µM: 14.1%
NCI-H23
  inhibition of growth at 10 µM: 12.1%
SK-MEL-5
  inhibition of growth at 10 µM: < 10%
OVCAR-5
  inhibition of growth at 10 µM: < 10%
RPMI-8226
  inhibition of growth at 10 µM: < 10%
HCT-116
  inhibition of growth at 10 µM: < 10%
SNB-19
  inhibition of growth at 10 µM: < 10%
MDA-MB-435
  inhibition of growth at 10 µM: < 10%
HCC 2998
  inhibition of growth at 10 µM: < 10%
HT-29
  inhibition of growth at 10 µM: < 10%
SR
  inhibition of growth at 10 µM: < 10%
HOP-62
  inhibition of growth at 10 µM: 12.5%
A549
  inhibition of growth at 10 µM: < 10%
DU-145
  inhibition of growth at 10 µM: < 10%
HOP-92
  inhibition of growth at 10 µM: 11.2%
CCRF-CEM
  inhibition of growth at 10 µM: < 10%
K562
  inhibition of growth at 10 µM: < 10%
UACC-257
  inhibition of growth at 10 µM: < 10%
BT-549
  inhibition of growth at 10 µM: < 10%
COLO 205
  inhibition of growth at 10 µM: 10.4%
SN12C
  inhibition of growth at 10 µM: 15.5%
EKVX
  inhibition of growth at 10 µM: 13%
NCI-H522
  inhibition of growth at 10 µM: 11.4%
SK-MEL-2
  inhibition of growth at 10 µM: 10%
OVCAR-3
  inhibition of growth at 10 µM: < 10%
HL-60(TB)
  inhibition of growth at 10 µM: < 10%
